No end group written: not given here.
How the values were obtained:
[1] = Serum stability of PD-L1 targeting peptides; format: in vitro ADME; conditions: incubated with whole serum obtained from mice up to 24h; HPLC peptide peak
Description: Mouse blood was collected and allowed to cloth using a microtube for 15-20 min in RT. Serum was then centrifuged at 12000rpm at 4 °C. The upper portion (serum) was collected for testing the peptide stability. The incubated samples were diluted 100-fold and fractionated by C18 reverse phage high performance liquid chromatography (HPLC) with a linear gradient of acetonitrile (0.1% trifluoroacetate in water for equilibration and 0.1% trifluoroacetate in acetonitrile for elution). The peptide peak was collected and vacuum dried.
To measure the KD values of the peptides SPR assays were performed using a streptavidin chip coated with biotin-peptides (FIG. 3a and FIG. 3b). Four different concentrations of PD-L1 binding peptides were for PD-L1Pep-2. […] PD-L1 expression was then knocked down in the MDA-MB231 cell expressing PD-L1. siRNA was tested at different concentration (FIG. 3d). […] To further examine the stability of PD-L1 binding peptides, the peptide was incubated with whole serum obtained from mice up to 24h.

[2] = system: CT26 mouse syngeneic colon tumor model; test: Combination therapy of PD-L1 binding peptides with doxorubicin (tumor volume, body weight, survival, immune cell analysis by flow cytometry); format: in vivo
Description: (§1) 6-8-week-old WT Balb/c mice were purchased. Mice was cared and maintained under the guidelines of the Institutional Animal Care and Use Committee (IACUC) of Kyungpook National University (2014-0001-8.). Tumor was injected onto the lower right flank of the mice. For the in-vivo homing imaging, the tumor was developed for 7 days, after the tumor size reached to 100mm^3, the mice were injected with 100µl of 100mM Flamma-675 NIR fluorescence dye labelled peptides and allow the complete circulation for an hour. After incubation, the mice were anesthetized, and the image was taken using the IVIS imaging system. After completing the imaging, the mice were sacrificed and the tumor along with the other organs were isolated out and subjected to ex-vivo imaging using the IVIS imaging machine. For the antitumor therapy the mice were randomized and grouped after the tumor size was reached to approximately 100mm^3. The peptide was then injected intravenously (5mg/kg) 100µg/mice for 3 weeks, 3 injections/ week. Doxorubicin was injected intraperitoneal (4mg/kg) once a week. Tumor size was measured using a digital caliper, and the tumor volume was calculated using the formula (Volume ¼(L-W-H)/2. (Length: longest dimension, Width: shorter dimension, parallel to the mouse body and Height: perpendicular to the length and width). All mice were checked for the ulceration and at the end of the treatment and the mice were sacrificed for the immune cell analysis.
(§2) Tumors were isolated, minced and incubated with a digestion buffer containing collagenase D (5mg/ml) with the RPMI-1640 medium at 37 °C for 40min. The cell suspension was passed through a cell strainer. The single cell suspension was made ready to use and CD45 antibody was used to stain the tumor infiltrating leukocytes and then analyzed with following antibodies for CD4, CD8 and F4/80. The stained cells were then subjected to flow cytometry (Novocyte).
To enhance the efficacy of immunotherapy with PD-L1-binding peptides, the present inventors combined the peptides with doxorubicin, a chemotherapeutic agent known to induce immunogenic cell death, in CT26 mouse syngeneic colon tumor model. PD-L1 peptides doses were reduced from 12 injections to 9 injections and doxorubicin was given once a week (FIG. 6a). The combination therapy controlled the tumor volume more drastically compared to the previous single treatment (FIG. 6b). In addition, the combination therapy maintained the body weight unchanged compared to the control group, and increased the survival percentage (FIG. 6c and FIG. 6d).

[3] = system: CT26 syngeneic mouse model; test: Antitumor therapy with PD-L1 binding peptides alone (tumor volume, body weight, survival, immune cell analysis, immunostaining); format: in vivo; conditions: peptide intravenously every alternative day for 24 days; compared to the control peptide and PBS group
Description: as §1, with “After completing the imaging, the mice were sacrificed and the tumor along with the other organs were isolated out and subjected to ex-vivo imaging using the IVIS imaging machine. For the antitumor therapy the mice were randomized and grouped after the tumor size was reached to approximately 100mm^3. The peptide was then injected intravenously (5mg/kg) 100µg/mice for 3 weeks, 3 injections/ week. Doxorubicin was injected intraperitoneal (4mg/kg) once a week.” left out, “analysis. […]” for “analysis.”
as §2, with “The cell suspension was passed through a cell strainer.” left out, “The stained cells were then subjected to flow cytometry (Novocyte).” left out

[4] = biological target: T1, GFP-tagged PD-L1 transiently overexpressed on Hek-293T cells (human, UniProt Q9NZQ7 19-290); test: phage peptide display selection on PD-L1 overexpressing cells
T1 construct: whole, on cells; also called PD-L1-overexpressing cells; not shown: GFP tag
T1 sequence (Q9NZQ7 19-290): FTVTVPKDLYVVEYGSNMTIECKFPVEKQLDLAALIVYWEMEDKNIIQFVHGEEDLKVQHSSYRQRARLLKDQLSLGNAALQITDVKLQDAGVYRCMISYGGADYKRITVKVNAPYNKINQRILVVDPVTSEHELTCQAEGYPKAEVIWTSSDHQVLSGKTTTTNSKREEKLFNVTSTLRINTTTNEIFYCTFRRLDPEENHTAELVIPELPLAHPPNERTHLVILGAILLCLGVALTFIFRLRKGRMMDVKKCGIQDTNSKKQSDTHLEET

[5] = biological target: T2, PD-L1 on MDA-MB231 cells (human, UniProt Q9NZQ7 19-290); test: immunofluorescence and flow cytometry, FITC-peptide on MDA-MB231 cells
T2 construct: whole, on cells; also called MDA-MB 231 cells expressing PD-L1
T2 sequence (Q9NZQ7 19-290): as above

[6] = biological target: T1, GFP-tagged PD-L1 transiently …; test: immunofluorescence, FITC-peptide on transfected HEK 293T cells
[7] = 'from' value of the printed increase, apparently single peptide treatment
[8] = 'to' value of the printed increase, apparently combination with doxorubicin

**Q.** Which “time the peptide peak remained intact in serum” value [1] does the source give for CLQKTPKQC [PD-L1Pep-1] here?
**A.** 8 h

**Q.** And the “CD4+ T cells in tumor tissue” value [2, 7]?
**A.** 0.4%

**Q.** And the “expression percentage of CD8+ T cells in tumor tissue” value [2, 7]?
**A.** 1.5%

**Q.** What about the “CD4+ T cells in tumor tissue” value [2, 8] of the same molecule?
**A.** 6%

**Q.** And the “expression percentage of CD8+ T cells in tumor tissue” value [2, 8]?
**A.** 6.2%

**Q.** And the tumor volume [3]?
**A.** robust effect

**Q.** For CVRARTR [PD-L1Pep-2, CVRARTR], which “time the peptide peak remained intact in serum” value [1] is on record?
**A.** 4 h

B1: PD-L1Pep-1 (peptide)
peptide: CLQKTPKQC
modifications: cysteine pairing not given here; also: N-terminal FITC, biotin or Flamma-675 according to assay
notes: also called PBP
**Q.** Which results are given for B1?
**A.** binding result [4]: binds; binding result [5]: binds

B2: PD-L1Pep-2 (peptide)
peptide: CVRARTR
modifications: also: N-terminal FITC, biotin or Flamma-675 according to assay
notes: Synthetic 7mer (CVRARTR); also called PBP
**Q.** What does the source list for B2?
**A.** binding result [6]: binds; binding result [5]: binds

From patent EP3725799B1, “PEPTIDE BINDING TO PL-L1 AND USE THEREOF” (Kyungpook National University Industry-Academic Cooperation …, priority 2017, dated 2025)
